{"source": "patent US20010003121A1", "about": "“Novel compounds” (AstraZeneca UK Limited, priority 1997, published 2001)", "note": "Where a name gives a salt, the structure may show the parent alone.", "data": [{"values": [{"smiles": "O=C(NCC12CC3CC(CC(C3)C1)C2)c1ccc(Cl)cc1Cl", "melting point": "180 to 182 °C"}, {"smiles": "COc1cccc(OC)c1C(=O)NCC12CC3CC(CC(C3)C1)C2", "melting point": "185 to 186 °C"}, {"smiles": "CN(C)CCOc1ccccc1C(=O)NCC12CC3CC(CC(C3)C1)C2.Cl", "melting point": "181 to 183 °C"}, {"smiles": "O=C(NCC12CC3CC(CC(C3)C1)C2)c1cc(NCCCl)ccc1Cl", "melting point": "144 to 145 °C"}, {"smiles": "O=C(NCC12CC3CC(CC(C3)C1)C2)c1cc(N2CC2)ccc1Cl", "melting point": "154 to 155 °C"}, {"smiles": "CN(C)CCNc1ncccc1C(=O)NCC12CC3CC(CC(C3)C1)C2", "note": "(as salt: hydrochloride) [Example 32, 2-(2-(N,N-Dimethylamino)ethylamino)-N-(tricyclo[3.3.1.1^3,7]dec-1-ylmethyl)-3-pyridine carboxamide, dihydrochloride]", "melting point": "258 to 260 °C"}, {"smiles": "O=C(NCC12CC3CC(CC(C3)C1)C2)c1cccnc1NCCN1CCCC1", "note": "(as salt: hydrochloride) [Example 33, 2-(2-(Pyrrolidin-1-yl)ethylamino)-N-(tricyclo[3.3.1.1^3,7]dec-1-ylmethyl)-3-pyridine carboxamide, dihydrochloride]", "melting point": "266 to 268 °C"}, {"smiles": "CNc1ncccc1C(=O)NCC12CC3CC(CC(C3)C1)C2", "note": "(as salt: hydrochloride) [Example 34, 2-(Methylamino)-N-(tricyclo[3.3.1.1^3,7]dec-1-ylmethyl)-3-pyridine carboxamide, dihydrochloride]", "melting point": "160 to 162 °C"}, {"smiles": "CN(C)c1ncccc1C(=O)NCC12CC3CC(CC(C3)C1)C2", "note": "(as salt: hydrochloride) [Example 35, 2-(Dimethylamino)-N-(tricyclo[3.3.1.1^3,7]dec-1-ylmethyl)-3-pyridine carboxamide, hydrochloride]", "melting point": "204 to 205 °C"}, {"smiles": "O=C(NCC12CC3CC(CC(C3)C1)C2)c1cccnc1N1CCCC1", "note": "(as salt: hydrochloride) [Example 36, 2-(Pyrrolidin-1-yl) N-(tricyclo[3.3.1.1^3,7]dec-1-ylmethyl)-3-pyridine carboxamide, dihydrochloride]", "melting point": "157 to 158 °C"}, {"smiles": "CN(C)CCCOc1ccc(Sc2ncccc2C(=O)NCC23CC4CC(CC(C4)C2)C3)cc1", "note": "(as salt: hydrochloride) [Example 48, 2-(4-(3-N,N-dimethylamino)propyloxyphenylthio)-N-(tricyclo[3.3.1.1^3,7]dec-1-ylmethyl)-3-pyridine carboxamide, dihydrochloride]", "melting point": "177 to 178 °C"}, {"smiles": "O=C(NCC12CC3CC(CC(C3)C1)C2)c1cc(NCCN2CCCCC2)ccc1Cl", "note": "(as salt: hydrochloride) [Example 70, 2-Chloro-5-(2-(piperidin-1-yl)ethylamino)-N-(tricvclo(3.3.1.1^3,7]dec-1-ylmethyl)-benzamide, hydrochloride]", "melting point": "142 to 143 °C (dec.)"}, {"smiles": "O=C(NCC12CC3CC(CC(C3)C1)C2)c1cc(NCCNCCO)ccc1Cl", "note": "(as salt: hydrochloride) [Example 71, 5-(N-(2-Hydroxyethyl)-2-aminoethyl)amino-2-chloro-N-(tricyclo[3.3.1.1^3,7]dec-1-ylmethyl)-benzamide, dihydrochloride]", "melting point": "143 °C (dec.)"}, {"smiles": "NCCSc1ncccc1C(=O)NCC12CC3CC(CC(C3)C1)C2", "note": "(as salt: trifluoroacetate) [Example 31, 2-(2-Aminoethylthio)-N-(tricyclo[3.3.1.1^3,7]dec-1-ylmethyl)-3-pyridine carboxamide, trifluoroacetate]", "melting point": "184 °C"}, {"smiles": "O=C(NCC12CC3CC(CC(C3)C1)C2)c1cc(Cl)cc(Cl)c1", "note": "[Example 2, 3,5-Dichloro-N-(tricyclo[3.3.1.1^3,7]dec-1-methyl)-benzamide]", "melting point": "197 to 198 °C"}, {"smiles": "O=C(NCC12CC3CC(CC(C3)C1)C2)c1c(Cl)cccc1Cl", "note": "[Example 4, 2,6-Dichloro-N-(tricyclo[3.3.1.1^3,7]dec-1-methyl)-benzamide]", "melting point": "246 to 247 °C"}, {"smiles": "O=C(NCC12CC3CC(CC(C3)C1)C2)c1ccccc1I", "note": "[Example 8, 2-Iodo-N-(tricyclo[3.3.1.1^3,7]dec-1-methyl)-benzamide]", "melting point": "194 to 195 °C"}, {"smiles": "O=C(NCC12CC3CC(CC(C3)C1)C2)c1ccccc1[N+](=O)[O-]", "note": "[Example 9, 2-Nitro-N-(tricyclo[3.3.1.1^3,7]dec-1-methyl)-benzamide]", "melting point": "> 250 °C"}, {"smiles": "O=C(NCC12CC3CC(CC(C3)C1)C2)c1ccccc1C(F)(F)F", "note": "[Example 11, 2-(Trifluoromethyl)-N-(tricyclo[3.3.1.1^3,7]dec-1-methyl)-benzamide]", "melting point": "165 to 167 °C"}, {"smiles": "O=C(NCC12CC3CC(CC(C3)C1)C2)c1c(F)cccc1F", "note": "[Example 12, 2,6-Difluoro-N-(tricyclo[3.3.1.1^3,7]dec-1-methyl)-benzamide]", "melting point": "162 to 163 °C"}, {"smiles": "O=C(NCC12CC3CC(CC(C3)C1)C2)c1c(F)cccc1C(F)(F)F", "note": "[Example 13, 2-(Trifluoromethyl)-6-flouro-N-(tricyclo(3.3.1.1^3,7]dec-1-methyl)-benzamide]", "melting point": "151 to 153 °C"}, {"smiles": "Nc1cccc(Cl)c1C(=O)NCC12CC3CC(CC(C3)C1)C2", "note": "[Example 14, 2-Amino-6-chloro-N-(tricyclo[3.3.1.1^3,7]dec-1-methyl)-benzamide]", "melting point": "182 to 183 °C"}, {"smiles": "N#Cc1ccccc1Sc1ccccc1C(=O)NCC12CC3CC(CC(C3)C1)C2", "note": "[Example 16, 2-(2-Cyanophenylthio)-N-(tricyclo[3.3.1.1^3,7]dec-1-methyl)-benzamide]", "melting point": "62 to 65 °C"}, {"smiles": "Cc1ccc(Sc2ncccc2C(=O)NCC23CC4CC(CC(C4)C2)C3)cc1", "note": "[Example 17, 2-(4-Methylphenylthio)-N-(tricyclo[3.3.1.1^3,7]dec-1-methyl)-3-pyridine carboxamide]", "melting point": "166 to 169 °C"}, {"smiles": "CSc1ccccc1C(=O)NCC12CC3CC(CC(C3)C1)C2", "note": "[Example 18, 2-(Methylthio)-N-(tricyclo[3.3.1.1^3,7]dec-1-methyl)-benzamide]", "melting point": "171 to 172 °C"}, {"smiles": "O=C(NCC12CC3CC(CC(C3)C1)C2)c1cccc(Cl)c1", "note": "[Example 20, 3-Chloro-N-(tricyclo[3.3.1.1^3,7]dec-1-methyl)-benzamide]", "melting point": "125 to 126 °C"}, {"smiles": "Cc1ccc(C)c(C(=O)NCC23CC4CC(CC(C4)C2)C3)c1", "note": "[Example 22, 2,5-Dimethyl-N-(tricyclo[3.3.1.1^3,7]dec-1-methyl)-benzamide]", "melting point": "153 to 154 °C"}, {"smiles": "O=C(NCC12CC3CC(CC(C3)C1)C2)c1ccccc1Cc1ccccc1", "note": "[Example 23, 2-(Phenylmethyl) -N-(tricyclo[3.3.1.1^3,7]dec-1-methyl)-benzamide]", "melting point": "156 to 157 °C"}, {"smiles": "CC(C)(C)OC(=O)COc1ccccc1C(=O)NCC12CC3CC(CC(C3)C1)C2", "note": "[Example 25, 2-[[(Tricyclo[3.3.1.1^3,7]dec-1-ylmethyl)amino]carbony]phenyl-1-oxyacetic acid, 1,1-dimethylethyl ester]", "melting point": "101 to 103 °C"}, {"smiles": "C[S+]([O-])c1ncccc1C(=O)NCC12CC3CC(CC(C3)C1)C2", "note": "(stereo not shown) [Example 27, 2-(Methylsulphoxide)-N-(tricyclo[3.3.1.1^3,7]dec-1-methyl)-3-pyridine carboxamide]", "melting point": "214 °C"}, {"smiles": "O=C(NCC12CC3CC(CC(C3)C1)C2)c1ccc2[nH]ccc2c1", "note": "[Example 28, N-(tricyclo[3.3.1.1^3,7]dec-1-methyl)-5-indole carboxamide]", "melting point": "206 to 207 °C"}, {"smiles": "Nc1cccc(Cl)c1C(=O)NCCC12CC3CC(CC(C3)C1)C2", "note": "[Example 29, 2-Amino-6-chloro-N-(2-[tricyclo[3.3.1.1^3,7]dec-1-yl]ethyl)-benzamide]", "melting point": "132 to 134 °C"}, {"smiles": "COc1ccc(OC)c(Sc2ncccc2C(=O)NCC23CC4CC(CC(C4)C2)C3)c1", "note": "[Example 37, 2-(2,5-Dimethoxyphenylthio)-N-(tricyclo[3.3.1.1^3,7]dec-1-ylmethyl)-3-pyridine carboxamide]", "melting point": "135 to 136 °C"}, {"smiles": "CSc1ccc(Cl)c(C(=O)NCC23CC4CC(CC(C4)C2)C3)c1", "note": "[Example 38, 2-Chloro-5-methylthio-N-(tricyclo[3.3.1.1^3,7]dec-1-ylmethyl)-benzamide]", "melting point": "126 to 127 °C"}, {"smiles": "CN(C)CCSc1ccccc1C(=O)NCC12CC3CC(CC(C3)C1)C2", "note": "[Example 39, 2-(2-(N,N-Dimethylamino)ethylthio)-N-(tricyclo[3.3.1.1^3,7]dec-1-ylmethyl)-benzamide]", "melting point": "193 to 195 °C"}, {"smiles": "COc1ccc(Sc2ncccc2C(=O)NCC23CC4CC(CC(C4)C2)C3)cc1", "note": "[Example 40, 2-(4-Methoxyphenylthio)-N-(tricyclo[3.3.1.1^3,7]dec-1-ylmethyl)-3-pyridine carboxamide]", "melting point": "130 to 131 °C"}, {"smiles": "O=C(NCC12CC3CC(CC(C3)C1)C2)c1cccc(F)c1Cl", "note": "[Example 41, 2-Chloro-3-fluoro-N-(tricyclo[3.3.1.1^3,7]dec-1-ylmethyl)-benzamide]", "melting point": "149 to 151 °C"}, {"smiles": "O=C(NCC12CC3CC(CC(C3)C1)C2)c1cc(F)ccc1Cl", "note": "[Example 43, 2-Chloro-5-fluoro-N-(tricyclo[3.3.1.1^3,7]dec-1-ylmethyl)-benzamide]", "melting point": "176 to 177 °C"}, {"smiles": "O=C(NCC12CC3CC(CC(C3)C1)C2)c1cccnc1Sc1cc(O)ccc1O", "note": "[Example 44, 2-(2,5-Dihydroxyphenylthio)-N-(tricyclo[3.3.1.1^3,7]dec-1-ylmethyl)-3-pyridine carboxamide]", "melting point": "108 to 110 °C"}, {"smiles": "O=C(O)CSc1ncccc1C(=O)NCC12CC3CC(CC(C3)C1)C2", "note": "[Example 45, 3-[[(Tricyclo[3.3.1.1^3,7]dec-1-ylmethyl)amino]carbonyl]pyridyl-2-thioacetic acid]", "melting point": "147 to 150 °C"}, {"smiles": "O=C(O)COc1ccc(Sc2ncccc2C(=O)NCC23CC4CC(CC(C4)C2)C3)cc1", "note": "[Example 47, 3-[[(Tricyclo[3.3.1.1^3,7]dec-1-ylmethyl)amino]carbonyl]pyridyl-2-(4-phenylthio) oxyacetic acid]", "melting point": "185 to 186 °C"}, {"smiles": "CSc1nc(C)ccc1C(=O)NCC12CC3CC(CC(C3)C1)C2", "note": "[Example 49, (2-Methylthio-6-methyl)-N-(tricyclo[3.3.1.1^3,7]dec-1-ylmethyl)-3-pyridine carboxamide]", "melting point": "160 to 161 °C"}, {"smiles": "O=C(O)CCCOc1ccccc1C(=O)NCC12CC3CC(CC(C3)C1)C2", "note": "[Example 50, 2-[[(Tricyclo[3.3.1.1^3,7]dec-1-ylmethyl)amino]carbonyl]phenyl-1-oxybutyric acid]", "melting point": "109 to 113 °C"}]}]}
